Measured values from patent US20080299076A1, “Compunds and compositions that cause non-apoptotic cell death and uses thereof” (priority 2006, published 2008).

Legend:
murine VDAC3 = biological target: T1, murine VDAC3 (Mus musculus, UniProt Q60931); experiment: NADH oxidation assay in mitochondria from yeast expressing VDAC3; type: biochemical; conditions: mitochondria from yeast expressing VDAC3 in place of yeast VDAC
T1 construct: expressed in transfected cells; host or cells: yeast (S. cerevisiae) with murine VDAC3 in place of yeast VDAC; isolated mitochondria
T1 sequence (Q60931 1-283): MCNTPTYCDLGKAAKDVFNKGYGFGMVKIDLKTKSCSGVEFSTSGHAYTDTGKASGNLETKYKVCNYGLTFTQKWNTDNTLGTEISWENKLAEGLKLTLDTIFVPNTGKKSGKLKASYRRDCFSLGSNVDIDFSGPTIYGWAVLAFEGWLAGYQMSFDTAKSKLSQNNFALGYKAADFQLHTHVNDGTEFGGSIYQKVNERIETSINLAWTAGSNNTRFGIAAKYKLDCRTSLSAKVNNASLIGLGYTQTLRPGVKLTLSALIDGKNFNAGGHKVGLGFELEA
Procedure: In certain embodiments, mitochondria can be purified from yeast that had been engineered to express murine or human VDAC3 in place of yeast VDAC.
Mitochondria were isolated from yeast expressing murine VDAC3 in place of yeast VDAC. The rate of NADH oxidation by an inner membrane NADH dehydrogenase was determined by measuring the change in NADH absorbance over time. Mitochondria with a disrupted outer membrane show an increased rate of NADH oxidation (red, shocked) compared to untreated mitochondria (green).
NADH oxidation in the mitochondria was measured by resuspending mitochondria isolated from yeast in R-buffer (0.65 M sucrose, 10 mM HEPES (pH 7.5), 10 mM KH2PO4, 5 mM KCl, 5 mM, MgCl2) to a final concentration of 100 μg/ml. Mitochondrial concentration was measured by dissolving mitochondria in 0.6% SDS and reading absorbance at 280 nm. The mitochondrial suspension was then incubated with 25 μM NADH, and the absorbance at 340 nm monitored over a 15 minute period. The assay was repeated in the presence of erastin. To assess mitochondrial intactness, a parallel assay was run in which mitochondria were hypotonically shocked prior to addition of NADH. The mitochondrial pellet was resuspended in dH2O and incubated on ice for 3 minutes to disrupt the outer mitochondrial membrane. 2× R-buffer was then added to restore normal osmotic conditions.

[1] = Toxicity after injection in mice; type: in vivo
Procedure: In certain embodiments, erastin was formulated at 150 mg/kg in 10% DMSO, 20% Tween 80, 70% saline and 0.5 mL of this formulation was injected via IV twice per day for four days in 3 nude mice.

cytochrome c = experiment: Cytochrome c release from mitochondria; type: cell-based, human; conditions: BJ-TERT/LT/ST/RAS^V12 cells; staurosporine 1 μM or erastin 20 μg/mL, 6 h
Procedure: BJ-TERT/LT/ST/RAS^V12 cells were seeded in polystyrene 100×20 mm dishes in 10 ml media. After overnight incubation at 37° C. with 5% CO2, the cells were treated with nothing (NT), staurosporine (ST, 1 μM) or erastin (20 μg/mL) for 6 h, washed with 10 mL ice-cold PBS and lysed by passage through a 25-gauge needle (five strokes). Cell lysates were centrifuged at 1850 rpm for 5 min at 4° C. to remove the nuclear fraction. Mitochondria were removed from the soluble cytosolic fraction by pelleting at 10,000 rpm. Supernatant and mitochondrial pellets were solubilized in SDS-PAGE loading buffer and analyzed by western blot using anti-cytochrome c and pan-VDAC antibodies and IR-dye-linked secondary antibodies. VDACs are mitochondrial proteins, so their absence in the cytosolic lane indicates effective separation of cytosol (C) from mitochondria (M). Fluorescence was detected on a LI-COR Odyssey infrared scanner.
For the cytochrome c release assay, cells were washed with 10 mL of ice-cold PBS, suspended in 120 μL of buffer (300 mM sucrose, 0.1% BSA, 10 mM HEPES, pH 7.5, 10 mM KCl, 1.5 mM MgCl2, 1 mM EGTA, 1 mM EDTA, 1 mM dithiothreitol, 2 mM phenylmethanesulfonyl fluoride and 1 protease inhibitor tablet (Roche)) and incubated on ice for 15 min. […] Supernatant and mitochondrial pellets were solubilized in SDS-PAGE loading buffer and analyzed by western blotting.

[2] = test system: BJ-TERT/LT/ST/RAS^V12 cells; experiment: ATP detection; type: cell-based, human; conditions: erastin 20 μg/mL for 12 hours
Procedure: Cells were seeded in polystyrene 100×20 mm dishes (Falcon/#353003) in 10 mL of media. Three million cells were seeded in each dish for staurosporine (STS) and erastin treatment. Two million cells were seeded in each dish for no treatment and hydrogen peroxide treatment. Cells were treated with staurosporine (1 μM) for 12 hours, with H2O2 (16 mM) for 1.5 hours and erastin (20 μg/mL) for 12 hours. After the incubation, we counted cells using a CiCell analyzer (Beckman). 100,000 cells from each treatment were collected and washed twice in Hank's Salt Solution (10 ml). Next, we suspended cells in 200 μl of Nucleotide Releasing Buffer (BioVision/K254-200 ApoSensor Cell Viability Assay Kit) and incubated at room temperature for 10 minutes. To 10 μl of the above sample, we added 1 μl of ATP Minitoring Enzyme (BioVision/K254-200 ApoSensor Cell Viability Assay Kit) and read the ATP levels of the samples using a luminometer.
ATP levels were measured in BJERL cells treated with nothing (NT), treated with 1 μM of Staurosporine (STS) for 12 hours, with 16 mM of hydrogen peroxide for 1.5 hours and 20 μg/mL of erastin for 12 hours. ATP levels were normalized by number of viable cells.

BJELR cells = experiment: Erastin sensitivity after upregulation of VDAC proteins by nucleofection; type: cell-based, human
From the text: Quantitative western blot showing the ratio of VDACs (top band, green) to eif4E (bottom band, red) (e). […] Green, untransfected BJELR cells; blue, mock nucleofected BJELR cells; red, VDAC2/3-nucleofected BJELR cells (f).
In certain aspects, the invention provides that erastin acts by a gain-of-function mechanism and that cells with more VDAC proteins are more sensitive to erastin. A gain-of-function mechanism operates in cells which have increased levels of topoisomerase I and are thus more sensitive to camptothecin^149. […] In other embodiments, cell lines can be stably transfected with vectors expressing VDAC1, 2, and/or 3. Thus, increased VDAC expression leads to erastin sensitivity which is consistent with a gain of function mechanism. Furthermore, a knockdown of VDACs causes erastin resistance.

Structure (SMILES): CCOc1ccccc1-n1c(C(C)N2CCN(C(=O)COc3ccc(Cl)cc3)CC2)nc2ccccc2c1=O (stereo not shown) [erastin, 2-(1-{4-[2-(4-Chloro-phenoxy)-acetyl]-piperazin-1-yl}-ethyl)-3-(2-ethoxy-phenyl)-3H-quinazolin-4-one]
- Rate of NADH oxidation / permeability of outer mitochondrial membrane to NADH (murine VDAC3): increases the permeability
- Rate of NADH oxidation / permeability of outer mitochondrial membrane to NADH (murine VDAC3; listed as Erastin): increased the rate of NADH oxidation
- Gross toxicity (body weight and behavior) ([1]; 150 mg/kg in 10% DMSO, 20% Tween 80, 70% saline, IV twice per day for four days, nude mice): No gross toxicity
- Overt toxicity ([1]; single dose IP in 100% DMSO up to 450 mg/kg): no overt toxicity
- Cytochrome c release from mitochondria (cytochrome c): does not induce cytochrome c release
- ATP levels per viable cell [2]: decreased modestly
- Increase in sensitivity to erastin (BJELR cells): about two to three-fold
